Measured values reported in ChEMBL document CHEMBL1201862, “PubChem BioAssay data set” (2004).
Active and inactive are the calls of the source.

How the values were obtained:
Bcl-2-like protein 1 = Bcl-2-like protein 1 (Homo sapiens, UniProt Q07817); experiment: blockers of BCLXL peptide binding – biochemical, fluorescence polarization, 1536-well, selectivity assay for MCL1 inhibitor project, dose response (AID 2218)
[1] = molecular target: Induced myeloid leukemia cell differentiation protein Mcl-1 (Homo sapiens, UniProt Q07820); experiment: blockers of MCL1 binding to BIM peptide – biochemical, fluorescence polarization, BIM-BH3 peptide, 1536-well, dose response (AID 2217)
Aspartyl aminopeptidase = molecular target: T1, Aspartyl aminopeptidase (Plasmodium falciparum 3D7, UniProt Q8I2J3); experiment: Counterscreen for inhibitors of M1 and M17 aminopeptidases: QFRET-based biochemical high throughput dose response assay for inhibitors of the Plasmodium falciparum M18 Aspartyl Aminopeptidase (PFM18AAP). [Related PubChem assays: 1619 (Screening assay (M17LAP inhibitors).), 1445 (Screening assay (M1AAP inhibitors).)]
T1 sequence (Q8I2J3 whole entry): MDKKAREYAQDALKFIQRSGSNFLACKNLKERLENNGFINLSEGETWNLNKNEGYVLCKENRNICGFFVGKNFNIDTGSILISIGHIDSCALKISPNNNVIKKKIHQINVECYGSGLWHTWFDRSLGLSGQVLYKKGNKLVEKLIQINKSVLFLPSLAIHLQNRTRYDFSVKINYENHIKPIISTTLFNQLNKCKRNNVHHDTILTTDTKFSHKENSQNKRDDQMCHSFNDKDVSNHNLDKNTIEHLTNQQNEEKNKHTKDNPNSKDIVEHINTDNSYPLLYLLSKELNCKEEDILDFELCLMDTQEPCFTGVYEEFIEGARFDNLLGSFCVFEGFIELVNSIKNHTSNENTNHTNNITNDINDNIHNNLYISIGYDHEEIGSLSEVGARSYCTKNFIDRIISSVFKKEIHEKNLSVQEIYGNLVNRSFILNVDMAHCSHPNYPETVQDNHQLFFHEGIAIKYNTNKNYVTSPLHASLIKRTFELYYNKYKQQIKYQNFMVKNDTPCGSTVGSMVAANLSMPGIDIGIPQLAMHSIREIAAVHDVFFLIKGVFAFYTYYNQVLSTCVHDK

Procathepsin L = Procathepsin L (Homo sapiens, UniProt P07711); experiment: CTSL1 protease inhibition – biochemical, QFRET, 1536-well, counter-screen for M1/M17 aminopeptidase inhibitor project, dose response (AID 2214)
Leucine aminopeptidase = molecular target: T2, Leucine aminopeptidase (Plasmodium falciparum 3D7, UniProt Q8IL11); experiment: P. falciparum M17LAP inhibitors, primary screen, biochemical, fluorogenic H-Leu-NHMec substrate, 1536-well (AID 1619); format: functional
T2 sequence (Q8IL11 whole entry): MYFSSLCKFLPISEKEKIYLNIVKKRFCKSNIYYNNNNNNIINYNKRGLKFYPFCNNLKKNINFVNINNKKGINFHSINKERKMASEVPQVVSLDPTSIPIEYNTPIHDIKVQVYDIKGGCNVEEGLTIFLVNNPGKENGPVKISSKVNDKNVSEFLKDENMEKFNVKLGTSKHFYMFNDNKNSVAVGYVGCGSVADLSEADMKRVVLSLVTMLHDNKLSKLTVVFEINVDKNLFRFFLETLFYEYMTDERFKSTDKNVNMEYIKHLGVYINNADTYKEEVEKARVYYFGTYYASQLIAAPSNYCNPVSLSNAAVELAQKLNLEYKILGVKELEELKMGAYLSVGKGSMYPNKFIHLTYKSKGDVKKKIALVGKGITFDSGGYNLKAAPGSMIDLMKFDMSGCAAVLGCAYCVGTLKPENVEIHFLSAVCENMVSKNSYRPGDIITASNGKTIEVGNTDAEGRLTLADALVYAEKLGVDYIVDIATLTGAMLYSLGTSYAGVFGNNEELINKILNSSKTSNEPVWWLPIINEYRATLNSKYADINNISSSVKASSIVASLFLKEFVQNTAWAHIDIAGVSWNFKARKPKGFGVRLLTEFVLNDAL

[2] = molecular target: Peroxisome proliferator-activated receptor gamma/Nuclear receptor coactivator 3 (Homo sapiens, UniProt P37231); format: functional;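 note: agonist potency for raising coactivator recruitment to the receptor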
[3] = molecular target: Peroxisome proliferator-activated receptor gamma/Nuclear receptor coactivator 2 (Homo sapiens, UniProt P37231); format: functional;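 note: agonist potency for raising coactivator recruitment to the receptor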
[4] = molecular target: Peroxisome proliferator-activated receptor gamma/Nuclear receptor coactivator 1 (Homo sapiens, UniProt P37231); format: functional;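 note: agonist potency as compounds enhance coactivator SRC-1 recruitment to PPARgamma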
[5] = molecular target: FAD-linked sulfhydryl oxidase ALR (Homo sapiens, UniProt P55789); experiment: ALR-catalysed DTT oxidation blockers – biochemical, H2O2 detection, luminescence, cherry-pick, dose response (AID 493248)
BJ [6] = experiment: BJ-TERT-LT-ST fibroblast viability loss – cell-based, RAS-independent, luminescence, dose response (AID 1935); format: functional; conditions: Homo sapiens;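 note: BJ fibroblasts immortalized with TERT plus LT and ST oncogenes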
[7] = blockade of melanocortin 4 receptor signaling – cell-based, plate reader, cherry pick, counter-screen for LGR2 antagonist project, dose response (AID 743444); format: functional;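 note: transfected HEK 293 cells stimulated with alpha-MSH peptide; potency of inhibitors of the alpha-MSH evoked signal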
[8] = blockers of bursicon-stimulated LGR2 cAMP reporter – cell-based, HEK293, CRE-luciferase reporter, cherry pick, set 2, dose response (AID 743343); format: functional;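 note: transfected cells were stimulated with diluted bursicon conditioned medium after compound addition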
[9] = alpha-synuclein stem-loop luciferase translation blockers – H4 neuroglioma cells, luminescence, confirmation (AID 1988); format: functional, cell-based
[10] = DRD fibroblast viability loss – cell-based, non-viral oncogenic, luminescence, dose response (AID 1934); format: functional; conditions: Homo sapiens
[11] = viability loss in HEK293 cells – cell-based, plate reader, cherry-picked samples, cytotoxicity control, dose response (AID 743446); format: functional
BJ [12] = experiment: cells; format: functional, cell-based; conditions: Homo sapiens
BJ [13] = experiment: BJ-TERT fibroblast viability loss – cell-based, RAS-independent, luminescence, dose response (AID 1933); format: functional; conditions: Homo sapiens
[14] = Luminescence-based counterscreen assay for KLF5 inhibitors: dose response cell-based high throughput screening assay to identify cytotoxic compounds using the IEC-6 intestinal epithelial cell line. [Related pubchem assays: 1700 (Primary screen.), 1834 (Confirmation screen.), 1858 (Summary AID.), 1905 (Counterscreen.)]; format: functional
[15] = A549 cell cytotoxicity, dose response, cytotoxicity control, plate reader, cherry-pick, antagonist series (AID 743412); format: functional, cell-based
[16] = molecular target: Luciferin 4-monooxygenase (Photinus pyralis, UniProt P08659); experiment: inhibition of purified Photinus pyralis luciferase – biochemical, luminescence, dose response (AID 1891)
[17] = luciferase reporter signal suppression in cells – H4 neuroglioma cells, luminescence, dose response (AID 1990); format: functional, cell-based
[18] = Luminescence Cell-Based Dose Confirmation HTS to Identify Inhibitors of Platelet Dense Granule Release. [Related pubchem assays: 1663 (Primary HTS), 1678 (Summary of Project)]; format: functional
[19] = toxicity toward HepG2 liver cells – cell-based, plate reader, cherry-pick, antagonist series, cytotoxicity control, dose response (AID 743416); format: functional
[20] = molecular target: Heat shock protein HSP 90-alpha (Homo sapiens, UniProt P07900); format: functional, organism-based

Chain of Peroxisome proliferator-activated receptor gamma/Nuclear receptor coactivator 1 (P37231 whole entry): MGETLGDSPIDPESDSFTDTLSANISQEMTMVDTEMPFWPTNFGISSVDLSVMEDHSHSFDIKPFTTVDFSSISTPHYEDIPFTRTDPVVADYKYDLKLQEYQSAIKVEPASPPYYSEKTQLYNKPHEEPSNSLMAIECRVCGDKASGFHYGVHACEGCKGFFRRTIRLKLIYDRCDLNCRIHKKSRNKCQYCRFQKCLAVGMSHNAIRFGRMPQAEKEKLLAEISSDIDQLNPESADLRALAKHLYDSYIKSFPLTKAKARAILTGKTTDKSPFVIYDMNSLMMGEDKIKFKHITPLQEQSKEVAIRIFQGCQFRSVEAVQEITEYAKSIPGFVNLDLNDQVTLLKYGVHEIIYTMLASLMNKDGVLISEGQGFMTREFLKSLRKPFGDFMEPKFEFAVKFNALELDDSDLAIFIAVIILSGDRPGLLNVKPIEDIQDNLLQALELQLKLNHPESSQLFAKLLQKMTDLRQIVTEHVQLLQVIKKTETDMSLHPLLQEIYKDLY
Chain of Peroxisome proliferator-activated receptor gamma/Nuclear receptor coactivator 1 (Q15788 whole entry, further chain): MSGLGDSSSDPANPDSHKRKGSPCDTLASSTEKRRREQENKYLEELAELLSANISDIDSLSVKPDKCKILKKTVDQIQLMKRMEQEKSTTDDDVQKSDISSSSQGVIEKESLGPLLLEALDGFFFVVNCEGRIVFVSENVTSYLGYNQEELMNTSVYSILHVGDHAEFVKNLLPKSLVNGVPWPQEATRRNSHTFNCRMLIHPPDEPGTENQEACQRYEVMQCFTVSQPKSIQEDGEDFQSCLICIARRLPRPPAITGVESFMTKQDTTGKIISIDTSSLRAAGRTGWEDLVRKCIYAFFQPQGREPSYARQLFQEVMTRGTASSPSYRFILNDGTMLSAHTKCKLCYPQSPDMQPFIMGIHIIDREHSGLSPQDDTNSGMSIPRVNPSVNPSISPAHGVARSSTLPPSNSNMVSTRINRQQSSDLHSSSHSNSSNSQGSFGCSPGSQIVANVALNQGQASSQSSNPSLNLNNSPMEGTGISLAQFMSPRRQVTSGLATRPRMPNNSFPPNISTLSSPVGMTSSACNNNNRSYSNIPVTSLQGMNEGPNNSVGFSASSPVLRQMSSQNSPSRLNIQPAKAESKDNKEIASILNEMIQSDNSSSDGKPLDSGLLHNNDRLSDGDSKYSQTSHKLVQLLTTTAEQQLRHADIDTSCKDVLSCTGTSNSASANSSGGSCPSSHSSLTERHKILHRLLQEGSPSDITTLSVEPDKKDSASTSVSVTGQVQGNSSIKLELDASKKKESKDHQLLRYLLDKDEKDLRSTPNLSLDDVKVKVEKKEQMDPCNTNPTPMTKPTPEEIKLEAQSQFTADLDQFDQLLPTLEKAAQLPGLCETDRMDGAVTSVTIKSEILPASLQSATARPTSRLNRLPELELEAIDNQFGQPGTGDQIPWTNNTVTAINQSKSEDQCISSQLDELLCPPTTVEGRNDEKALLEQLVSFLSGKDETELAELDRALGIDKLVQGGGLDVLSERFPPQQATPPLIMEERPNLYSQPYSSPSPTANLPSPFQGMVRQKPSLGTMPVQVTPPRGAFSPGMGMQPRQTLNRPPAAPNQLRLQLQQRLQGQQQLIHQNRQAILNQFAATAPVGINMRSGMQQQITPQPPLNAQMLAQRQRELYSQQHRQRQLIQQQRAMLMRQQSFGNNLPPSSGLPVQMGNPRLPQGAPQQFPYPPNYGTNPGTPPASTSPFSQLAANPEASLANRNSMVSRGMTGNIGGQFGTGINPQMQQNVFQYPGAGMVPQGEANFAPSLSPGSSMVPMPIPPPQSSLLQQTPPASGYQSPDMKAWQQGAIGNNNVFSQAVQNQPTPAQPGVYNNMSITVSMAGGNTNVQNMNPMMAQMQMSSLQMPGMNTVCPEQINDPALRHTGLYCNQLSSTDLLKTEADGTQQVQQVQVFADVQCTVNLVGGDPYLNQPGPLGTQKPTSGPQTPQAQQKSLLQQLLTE
Chain of Peroxisome proliferator-activated receptor gamma/Nuclear receptor coactivator 2 (P37231 whole entry): as the sequence (P37231 whole entry) above
Chain of Peroxisome proliferator-activated receptor gamma/Nuclear receptor coactivator 2 (Q15596 whole entry, further chain): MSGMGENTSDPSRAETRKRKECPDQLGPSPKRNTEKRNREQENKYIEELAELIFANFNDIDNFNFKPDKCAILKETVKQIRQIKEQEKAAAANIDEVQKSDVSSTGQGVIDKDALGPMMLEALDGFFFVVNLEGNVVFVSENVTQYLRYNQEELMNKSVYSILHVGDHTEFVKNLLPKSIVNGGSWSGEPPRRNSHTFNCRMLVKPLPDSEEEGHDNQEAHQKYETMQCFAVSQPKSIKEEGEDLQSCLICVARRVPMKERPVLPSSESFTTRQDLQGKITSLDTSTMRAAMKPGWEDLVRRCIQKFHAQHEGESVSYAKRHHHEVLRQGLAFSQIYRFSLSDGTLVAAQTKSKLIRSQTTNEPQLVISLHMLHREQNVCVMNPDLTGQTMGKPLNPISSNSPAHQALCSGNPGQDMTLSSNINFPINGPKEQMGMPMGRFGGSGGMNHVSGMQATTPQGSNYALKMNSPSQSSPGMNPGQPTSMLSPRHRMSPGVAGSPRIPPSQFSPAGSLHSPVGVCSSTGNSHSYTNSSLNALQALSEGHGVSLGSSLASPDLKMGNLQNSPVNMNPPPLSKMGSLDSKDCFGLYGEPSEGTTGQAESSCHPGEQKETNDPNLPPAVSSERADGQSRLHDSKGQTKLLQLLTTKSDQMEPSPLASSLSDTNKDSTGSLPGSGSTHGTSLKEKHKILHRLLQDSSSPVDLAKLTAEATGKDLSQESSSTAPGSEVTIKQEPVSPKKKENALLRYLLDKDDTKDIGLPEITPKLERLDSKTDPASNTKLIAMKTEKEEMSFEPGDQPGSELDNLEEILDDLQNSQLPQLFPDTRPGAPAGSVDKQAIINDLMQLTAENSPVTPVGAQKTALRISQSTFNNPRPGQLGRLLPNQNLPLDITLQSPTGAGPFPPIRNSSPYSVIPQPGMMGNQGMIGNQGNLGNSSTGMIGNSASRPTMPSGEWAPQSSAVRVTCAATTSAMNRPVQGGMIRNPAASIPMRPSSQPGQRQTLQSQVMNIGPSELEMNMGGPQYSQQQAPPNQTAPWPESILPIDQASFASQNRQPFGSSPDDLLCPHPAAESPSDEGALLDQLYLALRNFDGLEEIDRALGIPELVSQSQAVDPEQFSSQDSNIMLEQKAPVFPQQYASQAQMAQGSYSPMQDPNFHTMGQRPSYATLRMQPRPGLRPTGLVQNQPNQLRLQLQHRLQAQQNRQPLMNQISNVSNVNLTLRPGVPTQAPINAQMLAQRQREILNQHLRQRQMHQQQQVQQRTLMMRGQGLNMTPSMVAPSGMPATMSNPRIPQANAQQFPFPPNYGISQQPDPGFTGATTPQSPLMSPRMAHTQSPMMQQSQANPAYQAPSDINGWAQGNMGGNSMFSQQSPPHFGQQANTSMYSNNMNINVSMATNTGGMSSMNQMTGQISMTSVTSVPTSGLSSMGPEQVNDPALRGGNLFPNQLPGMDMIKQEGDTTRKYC
Chain of Procathepsin L (P07711 whole entry): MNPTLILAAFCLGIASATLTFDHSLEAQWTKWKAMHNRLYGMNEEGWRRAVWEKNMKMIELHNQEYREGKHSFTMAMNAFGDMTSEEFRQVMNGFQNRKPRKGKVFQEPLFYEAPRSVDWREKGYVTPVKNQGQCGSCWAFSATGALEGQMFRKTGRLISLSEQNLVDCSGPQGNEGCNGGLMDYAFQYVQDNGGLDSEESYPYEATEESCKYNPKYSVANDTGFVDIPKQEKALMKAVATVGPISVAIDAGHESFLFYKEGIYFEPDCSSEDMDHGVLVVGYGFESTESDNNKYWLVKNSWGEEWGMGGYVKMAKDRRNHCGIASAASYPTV
Chain of Bcl-2-like protein 1 (Q07817 whole entry): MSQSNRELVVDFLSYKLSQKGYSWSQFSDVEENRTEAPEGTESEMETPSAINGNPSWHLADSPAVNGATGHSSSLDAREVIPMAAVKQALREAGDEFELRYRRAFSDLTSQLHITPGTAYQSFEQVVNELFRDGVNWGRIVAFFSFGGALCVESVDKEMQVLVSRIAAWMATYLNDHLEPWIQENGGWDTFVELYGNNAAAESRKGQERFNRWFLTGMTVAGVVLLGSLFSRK
Chain of Luciferin 4-monooxygenase (P08659 whole entry): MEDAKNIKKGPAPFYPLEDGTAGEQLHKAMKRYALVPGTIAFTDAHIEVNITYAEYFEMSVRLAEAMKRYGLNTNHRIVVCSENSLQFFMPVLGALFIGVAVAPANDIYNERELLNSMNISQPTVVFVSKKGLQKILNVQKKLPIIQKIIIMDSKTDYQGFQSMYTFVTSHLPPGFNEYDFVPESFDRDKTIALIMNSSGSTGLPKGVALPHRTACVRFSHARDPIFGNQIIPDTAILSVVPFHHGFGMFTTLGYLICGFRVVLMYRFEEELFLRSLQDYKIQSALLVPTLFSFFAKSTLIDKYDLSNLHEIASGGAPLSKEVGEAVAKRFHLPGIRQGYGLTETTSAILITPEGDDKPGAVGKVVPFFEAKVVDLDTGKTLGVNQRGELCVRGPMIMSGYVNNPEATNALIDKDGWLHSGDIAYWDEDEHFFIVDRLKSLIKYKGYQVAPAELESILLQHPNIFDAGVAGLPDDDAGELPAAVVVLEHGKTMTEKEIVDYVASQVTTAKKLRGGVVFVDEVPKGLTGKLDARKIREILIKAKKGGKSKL

Which IC50 (Bcl-2-like protein 1) does the source give for `Cc1cc[n+](-c2[n-]c(=O)sc2/C=N/NC(=O)CCn2c3ccccc3c3ccccc32)cc1` here?
Its IC50 is 27.6 µM (not active).

What about the IC50 [1] of the same compound?
The IC50 was 14.1 µM (not active).

For `Cc1ccc(Nc2nnc(SC3CCOC3=O)s2)cc1` (stereo not given), which IC50 (Aspartyl aminopeptidase) is on record?
The IC50 was > 73.5 µM (not active).

And the IC50 (Procathepsin L)?
Its IC50 is > 59.6 µM (not active).

And the IC50 (Leucine aminopeptidase)?
The IC50 was 1.94 µM (active).

Which EC50 [2] does the source give for `CCc1nc(SCc2ccc(F)cc2)[nH]c(=O)c1C#N` here?
Its EC50 is > 79.4 µM (not active).

And the EC50 [3]?
The EC50 was > 79.4 µM (not active).

And the EC50 [4]?
The EC50 was > 79.4 µM (not active).

And the AC50 [5]?
Its AC50 is 0.622 µM (active).

Which EC50 (BJ [6]) does the source give for `CN(C)c1ccc(Nc2nc(N)c3ccccc3n2)cc1` here?
The EC50 was > 150 µM (inconclusive).

What about the AC50 [7] of the same compound?
The AC50 was 1.89 µM (active).

And the AC50 [8]?
Its AC50 is 1.57 µM (active).

What about the EC50 [9] of the same compound?
Its EC50 is 10.1 µM (inconclusive).

And the EC50 [10]?
Its EC50 is 11.8 µM (active).

And the AC50 [11]?
The AC50 was 24.5 µM (active).

And the EC50 (BJ [12])?
The EC50 was 12.6 µM (active).

And the EC50 (BJ [13])?
Its EC50 is 10.6 µM (active).

What about the IC50 [14] of the same compound?
Its IC50 is 19.1 µM (not active).

What about the AC50 [15] of the same compound?
Its AC50 is 23.7 µM (active).

And the EC50 [16]?
Its EC50 is 1.37 µM (active).

And the EC50 [17]?
The EC50 was > 60 µM (inconclusive).

What about the EC50 [18] of the same compound?
The EC50 was 0.234 µM (active).

What about the AC50 [19] of the same compound?
The AC50 was 22.6 µM (active).

With `CCC1CCc2c(sc(NC(=O)C3CC=CCC3C(=O)O)c2C#N)C1` (stereo not given) as the compound, how does the IC50 (Aspartyl aminopeptidase) read?
Its IC50 is > 73.5 µM (not active).

And the IC50 (Procathepsin L)?
The IC50 was > 59.6 µM (not active).

What about the IC50 (Leucine aminopeptidase) of the same compound?
The IC50 was < 1 µM (active).

Which EC50 [2] does the source give for `C/C(=N\Nc1nc2ccccc2s1)c1ccc(Br)s1` here?
Its EC50 is > 79.4 µM (not active).

And the EC50 [3]?
Its EC50 is > 79.4 µM (not active).

What about the EC50 [4] of the same compound?
The EC50 was > 79.4 µM (not active).

What about the AC50 [20] of the same compound?
The AC50 was 3.85 µM (active).
